We go through 28 molecules from patent publication US20100029657A1, “Bridged, Bicyclic Heterocyclic or Spiro Bicyclic Heterocyclic Derivatives of Pyrazolo[1, 5-A]Pyrimidines, Methods for Preparation and Uses Thereof” (Wyeth, priority 2008, published 2010).

Each structure is given as a SMILES string. pIC50: −log10 of the molar value. Structures can show the parent of a compound that is named as a salt.

The target in one assay is T1, Flag/GST-tagged recombinant human B-Raf (Homo sapiens, UniProt P15056).
T1 construct: Flag; GST; made in house; host or cells: Sf9 insect cells (B-Raf); E. coli (MEK1-GST)
T1 sequence (P15056 whole entry): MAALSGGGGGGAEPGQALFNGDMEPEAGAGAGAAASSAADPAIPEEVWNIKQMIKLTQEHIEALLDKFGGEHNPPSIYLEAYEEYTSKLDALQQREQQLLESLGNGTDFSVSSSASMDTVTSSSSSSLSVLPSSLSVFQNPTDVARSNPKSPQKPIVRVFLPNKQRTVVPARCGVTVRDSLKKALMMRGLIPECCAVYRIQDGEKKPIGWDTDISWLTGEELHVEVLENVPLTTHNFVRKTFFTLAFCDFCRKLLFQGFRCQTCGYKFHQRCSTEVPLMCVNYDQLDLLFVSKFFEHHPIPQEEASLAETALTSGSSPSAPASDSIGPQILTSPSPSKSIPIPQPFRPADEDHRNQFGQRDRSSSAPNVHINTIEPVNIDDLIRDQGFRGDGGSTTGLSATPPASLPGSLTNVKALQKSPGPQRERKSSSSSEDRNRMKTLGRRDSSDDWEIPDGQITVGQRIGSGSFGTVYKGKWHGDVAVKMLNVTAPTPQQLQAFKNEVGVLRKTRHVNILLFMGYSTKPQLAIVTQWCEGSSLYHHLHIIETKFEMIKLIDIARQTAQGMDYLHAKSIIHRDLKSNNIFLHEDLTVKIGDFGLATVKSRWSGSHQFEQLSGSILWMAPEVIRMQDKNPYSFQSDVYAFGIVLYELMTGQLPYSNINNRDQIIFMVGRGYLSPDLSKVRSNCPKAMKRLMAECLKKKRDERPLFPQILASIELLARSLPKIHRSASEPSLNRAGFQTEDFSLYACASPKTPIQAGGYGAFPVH
In words: B-Raf kinase assay (phosphorylation of GST-MEK1, phospho-MEK1 antibody/Europium detection). The following applies: B-Raf IC50 Data for compounds of Formula A; read-out: Mean IC50. It counts as biochemical. Put shortly:
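Percent inhibition was calculated at each compound concentration from Europium time-resolved fluorescence (anti-phospho-MEK1, then Eu-conjugated anti-rabbit) after GST capture. The upstream kinase step used GST-MEK1 with 0.2 nM B-Raf for 45 min at room temperature in MOPS buffer, pH 7.2. It was started with a cocktail of 200 μM ATP and 40 mM MgCl2.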
`Fc1cc(N2C[C@@H]3C[C@H]2CN3)ccc1-c1ccnc2c(-c3cccc4[nH]ncc34)c(-c3ccncc3)nn12` [Example 52, 7-(4-((1S,4S)-2,5-Diazabicyclo[2.2.1]heptan-2-yl)-2-fluorophenyl)-3-(1H-indazol-4-yl)-2-(pyridin-4-yl)pyrazolo[1,5-a]pyrimidine]: the pIC50 (as a rule, −log10 of the IC50, conventionally taken in molar units) is above 9.52.

On to `CN1C[C@@H]2C[C@H]1CN2c1ccc(-c2ccnc3c(-c4cccc5[nH]ncc45)c(-c4ccncc4)nn23)c(F)c1` [Example 53, 7-(2-Fluoro-4-((1S,4S)-5-methyl-2,5-diazabicyclo[2.2.1]heptan-2-yl)phenyl)-3-(1H-indazol-4-yl)-2-(pyridin-4-yl)pyrazolo[1,5-a]pyrimidine], for which the pIC50 was above 9.52. Same read-out and setting: for `CN1C[C@@H]2C[C@H]1CN2c1ccc(-c2ccnc3c(-c4ccc(F)c(O)c4)c(-c4ccncc4)nn23)cc1` [Example 54, 2-fluoro-5-(7-(4-((1S,4S)-5-methyl-2,5-diazabicyclo[2.2.1]heptan-2-yl)phenyl)-2-(pyridin-4-yl)pyrazolo[1,5-a]pyrimidin-3-yl)phenol] the value was 6.82; for `Cc1cc(N2C[C@@H]3C[C@H]2CN3C)ccc1-c1ccnc2c(-c3ccc(F)c(O)c3)c(-c3ccncc3)nn12` [Example 56, 2-Fluoro-5-(7-(2-methyl-4-((1S,4S)-5-methyl-2,5-diazabicyclo[2.2.1]heptan-2-yl)phenyl)-2-(pyridin-4-yl)pyrazolo[1,5-a]pyrimidin-3-yl)phenol], above 9.52; for `Cc1cc(N2C[C@@H]3C[C@H]2CN3C)ccc1-c1ccnc2c(-c3cccc(O)c3)c(-c3ccncc3)nn12` [Example 58, 3-(7-(2-Methyl-4-((1S,4S)-5-methyl-2,5-diazabicyclo[2.2.1]heptan-2-yl)phenyl)-2-(pyridin-4-yl)pyrazolo[1,5-a]pyrimidin-3-yl)phenol], above 9.52. Still for that read-out and setting: the same measure for `Oc1cccc(-c2c(-c3ccncc3)nn3c(-c4ccc(N5C[C@@H]6C[C@H]5CN6)cc4Cl)ccnc23)c1` [Example 59, 3-(7-(4-((1S,4S)-2,5-Diazabicyclo[2.2.1]heptan-2-yl)-2-chlorophenyl)-2-(pyridin-4-yl)pyrazolo[1,5-a]pyrimidin-3-yl)phenol]: above 9.52; for `CN1C[C@@H]2C[C@H]1CN2c1ccc(-c2ccnc3c(-c4cccc(O)c4)c(-c4ccncc4)nn23)c(Cl)c1` [Example 60, 3-(7-(2-Chloro-4-((1S,4S)-5-methyl-2,5-diazabicyclo[2.2.1]heptan-2-yl)phenyl)-2-(pyridin-4-yl)pyrazolo[1,5-a]pyrimidin-3-yl)phenol]: above 9.52; for `Clc1cc(N2C[C@@H]3C[C@H]2CN3)ccc1-c1ccnc2c(-c3cccc4[nH]ncc34)c(-c3ccncc3)nn12` [Example 61, 7-(4-((1S,4S)-2,5-Diazabicyclo[2.2.1]heptan-2-yl)-2-chlorophenyl)-3-(1H-indazol-4-yl)-2-(pyridin-4-yl)pyrazolo[1,5-a]pyrimidine]: above 9.52.

`CN1C[C@@H]2C[C@H]1CN2c1ccc(-c2ccnc3c(-c4cccc5[nH]ncc45)c(-c4ccncc4)nn23)c(Cl)c1` [Example 62, 7-(2-Chloro-4-((1S,4S)-5-methyl-2,5-diazabicyclo[2.2.1]heptan-2-yl)phenyl)-3-(1H-indazol-4-yl)-2-(pyridin-4-yl)pyrazolo[1,5-a]pyrimidine]: the negative logarithm of the IC50 (pIC50) was above 9.52. The same measure, in the same setting: for `CCN1C2CCC1CC(c1ccnc3c(-c4ccc(F)c(O)c4)c(-c4ccncc4)nn13)C2` (stereo not shown) [Example 64, 5-(7-(8-Ethyl-8-azabicyclo[3.2.1]octan-3-yl)-2-(pyridin-4-yl)pyrazolo[1,5-a]pyrimidin-3-yl)-2-fluorophenol] the value was 8.52; for `CCOC(=O)N1C2CCC1CC(c1ccnc3c(-c4cccc(F)c4F)c(-c4ccncc4)nn13)C2` (stereo not shown) [Example 65, Ethyl 3-(3-(2,3-difluorophenyl)-2-(pyridin-4-yl)pyrazolo[1,5-a]pyrimidin-7-yl)-8-azabicyclo[3.2.1]octane-8-carboxylate], 6.52. As for `CCOC(=O)N1C2CCC1CC(c1ccnc3c(-c4cccc(NS(C)(=O)=O)c4)c(-c4ccncc4)nn13)C2` (stereo not shown) [Example 66, Ethyl 3-(3-(3-(methylsulfonamido)phenyl)-2-(pyridin-4-yl)pyrazolo[1,5-a]pyrimidin-7-yl)-8-azabicyclo[3.2.1]octane-8-carboxylate], the pIC50 was 6.48. Still for that read-out and setting: for `CCN1C2CCC1CC(c1ccnc3c(-c4ccc(NC(=O)OC)cc4)c(-c4ccncc4)nn13)C2` (stereo not shown) [Example 67, Methyl 4-(7-(8-ethyl-8-azabicyclo[3.2.1]octan-3-yl)-2-(pyridin-4-yl)pyrazolo[1,5-a]pyrimidin-3-yl)phenylcarbamate] the value was below 6.00. Still for that read-out and setting: for `CCN1C2CCC1CC(c1ccnc3c(-c4ccc(C#N)c(O)c4)c(-c4ccncc4)nn13)C2` (stereo not shown) [Example 68, 4-(7-(8-Ethyl-8-azabicyclo[3.2.1]octan-3-yl)-2-(pyridin-4-yl)pyrazolo[1,5-a]pyrimidin-3-yl)-2-hydroxybenzonitrile] the value was 7.24. Regarding `CCN1C2CCC1CC(c1ccnc3c(-c4ccc(NC=O)c(O)c4)c(-c4ccncc4)nn13)C2` (stereo not shown) [Example 72a, N-(4-(7-(8-Ethyl-8-azabicyclo[3.2.1]octan-3-yl)-2-(pyridin-4-yl)pyrazolo[1,5-a]pyrimidin-3-yl)-2-hydroxyphenyl)formamide], the pIC50 was 6.25. On the same count and under the same terms, the same measure for `CCN1C2CCC1CC(c1ccnc3c(-c4ccc(NC=O)c(OC)c4)c(-c4ccncc4)nn13)C2` (stereo not shown) [Example 72b, N-(4-(7-(8-ethyl-8-azabicyclo[3.2.1]octan-3-yl)-2-(pyridin-4-yl)pyrazolo[1,5-a]pyrimidin-3-yl)-2-methoxyphenyl)formamide]: 6.38; for `CCOC(=O)N1C2CCC1CC(c1ccnc3c(-c4cccc5[nH]ncc45)c(-c4ccncc4)nn13)C2` (stereo not shown) [Example 73, Ethyl 3-[3-(1H-indazol-4-yl)-2-pyridin-4-ylpyrazolo[1,5-a]pyrimidin-7-yl]-8-azabicyclo[3.2.1]octane-8-carboxylate]: 8.70. The same measure, in the same setting: the same measure for `CCN1C2CCC1CC(c1ccnc3c(-c4ccc(C)c5[nH]ncc45)c(-c4ccncc4)nn13)C2` (stereo not shown) [Example 77, 7-(8-ethyl-8-azabicyclo[3.2.1]oct-3-yl)-3-(7-methyl-1H-indazol-4-yl)-2-pyridin-4-ylpyrazolo[1,5-a]pyrimidine, trifluoroacetate salt]: 7.77; for `CCOC(=O)N1C2CCC1CC(c1ccnc3c(-c4ccc(C)c5[nH]ncc45)c(-c4ccncc4)nn13)C2` (stereo not shown) [Example 78, Ethyl 3-[3-(7-Methyl-1H-indazol-4-yl)-2-pyridin-4-ylpyrazolo[1,5-a]pyrimidin-7-yl]-8-azabicyclo[3.2.1]octane-8-carboxylate, trifuoroacetate salt]: 9.15; for `CCN1C2CCC1CC(c1ccnc3c(-c4ccc(Cl)c5[nH]ncc45)c(-c4ccncc4)nn13)C2` (stereo not shown) [Example 79, 3-(7-Chloro-1H-indazol-4-yl)-7-(8-ethyl-8-azabicyclo[3.2.1]oct-3-yl)-2-pyridin-4-ylpyrazolo[1,5-a]pyrimidin, trifluoroacetate salt]: 8.40. Turning to `CCN1C2CCC1CC(c1ccnc3c(-c4ccc(C(F)(F)F)c5[nH]ncc45)c(-c4ccncc4)nn13)C2` (stereo not shown) [Example 80, 7-(8-Ethyl-8-azabicyclo[3.2.1]oct-3-yl)-2-pyridin-4-yl-3-[7-(trifluoromethyl)-1H-indazol-4-yl]pyrazolo[1,5-a]pyrimidine, trifluoroacetate salt], the negative-log IC50 (pIC50) is 7.32.

Take `CCOC(=O)N1C2CCC1CC(c1ccnc3c(-c4ccc(F)c5[nH]ncc45)c(-c4ccncc4)nn13)C2` (stereo not shown) [Example 81, Ethyl 3-[3-(7-fluoro-1H-indazol-4-yl)-2-pyridin-4-ylpyrazolo[1,5-a]pyrimidin-7-yl]-8-azabicyclo[3.2.1]octane-8-carboxylate, trifluoroacetate salt]: the pIC50 was 9.40.

With `CCN1C2CCC1CC(c1ccnc3c(-c4cc(F)c(Cl)c5[nH]ncc45)c(-c4ccncc4)nn13)C2` (stereo not shown) [Example 82, 3-(7-Chloro-6-fluoro-1H-indazol-4-yl)-7-(8-ethyl-8-azabicyclo[3.2.1]oct-3-yl)-2-pyridin-4-ylpyrazolo[1,5-a]pyrimidine, trifluoro acetate salt], the negative-log IC50 (pIC50) is 8.70. The same measure, in the same setting: the same measure for `CCOC(=O)N1C2CCC1CC(c1ccnc3c(-c4ccc5cc[nH]c5c4)c(-c4ccncc4)nn13)C2` (stereo not shown) [Example 85, Ethyl 3-[3-(1H-indol-6-yl)-2-pyridin-4-ylpyrazolo[1,5-a]pyrimidin-7-yl]-8-azabicyclo[3.2.1]octane-8-carboxylate]: 7.44; for `CCN1C2CCC1CC(c1ccnc3c(-c4ccc5cc[nH]c5c4)c(-c4ccncc4)nn13)C2` (stereo not shown) [Example 87, 7-(8-Ethyl-8-azabicyclo[3.2.1]oct-3-yl)-3-(1H-indol-6-yl)-2-pyridin-4-ylpyrazolo[1,5-a]pyrimidine]: 7.49. Take `CCN1C2CCC1CC(c1ccnc3c(-c4cccc5[nH]ncc45)c(-c4ccncc4)nn13)C2` (stereo not shown) [Example 90, 7-(8-Ethyl-8-azabicyclo[3.2.1]octan-3-yl)-3-(1H-indazol-4-yl)-2-(pyridin-4-yl)pyrazolo[1,5-a]pyrimidine]: the pIC50 is 7.34.

The same assay, now with this note: Mean IC50 (uM), B-Raf IC50 Data for compounds of Formula A.
Turning to `CCOC(=O)N1C2CCC1CC(c1ccnc3c(-c4ccc(Cl)c5[nH]ncc45)c(-c4ccncc4)nn13)C2` (stereo not shown) [Example 75, Ethyl 3-[3-(7-chloro-1H-indazol-4-yl)-2-pyridin-4-ylpyrazolo[1,5-a]pyrimidin-7-yl]-8-azabicyclo[3.2.1]octane-8-carboxylate], the IC50 (commonly the concentration needed to halve the response being measured) was determined as 0.0003 µM. Consider `CCOC(=O)N1C2CCC1CC(c1ccnc3c(-c4ccc(C(F)(F)F)c5[nH]ncc45)c(-c4ccncc4)nn13)C2` (stereo not shown) [Example 76, Ethyl 3-{2-pyridin-4-yl-3-[7-(trifluoromethyl)-1H-indazol-4-yl]pyrazolo[1,5-a]pyrimidin-7-yl}-8-azabicyclo[3.2.1]octane-8-carboxylate], for which the IC50 stood at 0.004 µM.
